In patent US8765166B2, “Drug delivery devices for delivery of ocular therapeutic agents” (Aerie Pharmaceuticals, Inc., priority 2010, dated 2014):
In brackets after ≈: the same amount, converted by molar mass. Counter-ions that a name gives are not always drawn.

Key:
physchem = details: for solubility: aqueous buffer
Source text: The active agent may be any active agent suitable to treat the desired condition. […] Examples include, but are not limited to, acetazolamide, dorzolamide HCl, timolol maleate, and ethacrynic acid sodium salt.

[1] = topical ocular use; cited from earlier work

Compound	solubility class (physchem)	solubility (physchem)	other results
CC(=O)Nc1nnc(S(N)(=O)=O)s1 [acetazolamide]		> 1000 µg/mL	
brimonidine tartrate			solubility class (physchem; PBS at pH=7.2-7.4, listed as brimonidine D-tartrate salt): high solubility; solubility in water (physchem; in water at pH 7.7): 600 µg/mL
O=C(O)CCCCCC[C@@H]1[C@@H](CC[C@@H](O)c2cc3ccccc3s2)[C@H](O)C[C@@H]1O [AR-102 free acid, 7-((1R,2R,3R,5S)-2-((R)-3-(benzo[b]thiophen-2-yl)-3-hydroxypropyl)-3,5-dihydroxycyclopentyl)heptanoic acid]	moderate solubility		
CCNC(=O)CCC/C=C\C[C@@H]1[C@@H](/C=C/[C@@H](O)CCc2ccccc2)[C@H](O)C[C@@H]1O [bimatoprost]	low solubility		
Brc1c(NC2=NCCN2)ccc2nccnc12 [brimonidine free base]			solubility in PBS (physchem): 360 µg/mL (≈ 1230 µM)
C[C@@H](N)c1ccc(C(=O)Nc2ccnc3[nH]ccc23)cc1 [Y-39983 Free Base]	Moderately Soluble		
O=C(O)CCC/C=C\C[C@@H]1[C@@H](CC[C@@H](O)CCc2ccccc2)[C@H](O)C[C@@H]1O [latanoprost free acid]			solubility in PBS (physchem): 800 µg/mL (≈ 2050 µM)

Second part, led by results:

solubility class (physchem)	solubility (physchem)	Compound	other results
high solubility	> 1000 µg/mL	CCN[C@H]1C[C@H](C)S(=O)(=O)c2sc(S(N)(=O)=O)cc21 [dorzolamide HCl]	
	< 300 µg/mL	CC[C@H](C)C(=O)O[C@H]1C[C@@H](C)C=C2C=C[C@H](C)[C@H](CC[C@@H]3C[C@@H](O)CC(=O)O3)[C@H]21 [lovastatin]	
high solubility		C[C@@H]1C[C@H]2[C@@H]3CCC4=CC(=O)C=C[C@]4(C)[C@@]3(F)[C@@H](O)C[C@]2(C)[C@@]1(O)C(=O)COP(=O)(O)O [dexamethasone sodium phosphate]	
low solubility	< 300 µg/mL	CC(C)OC(=O)CCC/C=C\C[C@@H]1[C@@H](CC[C@@H](O)CCc2ccccc2)[C@H](O)C[C@@H]1O [latanoprost isopropyl ester]	topical effective concentration [1]: 0.05 milligrams/mL
low solubility	< 300 µg/mL	CC(C)OC(=O)CCC/C=C\C[C@@H]1[C@@H](/C=C/[C@@H](O)COc2cccc(C(F)(F)F)c2)[C@H](O)C[C@@H]1O [travoprost isopropyl ester]	
low solubility	< 300 µg/mL	C[C@@H]1C[C@H]2[C@@H]3CCC4=CC(=O)C=C[C@]4(C)[C@@]3(F)[C@@H](O)C[C@]2(C)[C@@]1(O)C(=O)CO [dexamethasone]	
high solubility	> 1000 µg/mL	C=C(CC)C(=O)c1ccc(OCC(=O)O)c(Cl)c1Cl [ethacrynic acid sodium salt]	
high solubility	> 1000 µg/mL	CC(C)(C)NC[C@H](O)COc1nsnc1N1CCOCC1 [timolol maleate]	
